Experimental data published in patent US7932384B2, “Reverse-turn mimetics and method relating thereto” (Choongwae Pharma Corporation, priority 2001, dated 2011).

Legend:
[1] = system: SW480 cells; experiment: Flow cytometric analysis (FACS) of cell cycle, SW480; format: cell-based; settings: SW480, 25 μM, 24 hours
Description: For FACS analysis, approx. 5×10^6 cells from Compound D-treated or vehicle-treated were fixed with 70% chilled ethanol and stored at −20° C. for at least 30 minutes. The cells were washed once with 1×PBS and incubated with propidium iodine (PI) solution (85 μg/ml propidium iodine, 0.1% Nonidet P-40, 10 mg/ml RNAse) for 30 minutes at room temperature. 10,000 stained cells for each sample were acquired using Beckman Coulter EPICS XL-MCL Flow Cytometry and the percentage of cells in different phase of the cell cycle was determined by Expo32 ADC software (Coulter Corporation, Miami, Fla., 33196).
It has been shown that inhibition of the expression of the cyclin D1 gene causes arrest at the G1/S-phase of the cell cycle (Shintani et al., “Infrequent alternations of RB pathway (Rb-p16INK4A-cyclin D1) in adenoid cystic carcinoma of salivary glands,” Anticancer Res. 20:2169-75 (2000)). […] The cells were subsequently stained with propidium iodide (PI) and analyzed for DNA content by FACS cytofluorometry.

[2] = system: Ubiquitin; experiment: Real time RT-PCR gene expression, Ubiquitin; format: cell-based; settings: 25 μM, 24 hours; <0.5 significant decrease, >1.5 significant increase
Description: (§1) Real time reverse transcription-PCR analysis was performed according to the protocol provided with the SYBR Green PCR Master Mix Kit (Perkin Elmer Biosystems, Shelton, ST). […] The primers used for the RT-PCR reactions were [NT] and [NT].

[3] = system: MIC-1; experiment: Real time RT-PCR gene expression, MIC-1; format: cell-based; settings: 25 μM, 24 hours; <0.5 significant decrease, >1.5 significant increase
Description: as §1

[4] = system: PC-12 cells overexpressing PS-1/L286V; experiment: Neurite outgrowth and differentiation of PC-12 PS-1/L286V cells; format: cell-based, Rat; settings: PS-1/L286V mutant PC-12 cells, 10 μM plus NGF
Description: Cell Differentiation. Cell culture dishes were pre-coated overnight with 0.25 mg/ml collagen (Cohesion, CA), 10 μg/ml Poly-L-Lysine (Sigma-Aldrich, St. Louis, Mo.) and 12 μg/ml Polyethyleneimine (ICN, La Mesa, Calif.). Cells were cultured on coated dishes at 15,000 cells/cm^2, and differentiated into a neuron-like phenotype by incubation in medium with reduced serum (1% fetal bovine serum), containing 50 ng/ml nerve growth factor (NGF) (Sigma-Aldrich) for 10 days. NGF-containing medium was changed every 2-3 days.
(§2) Differentiated PC-12/L286V cells were treated with increasing concentrations of this compound for 4 hours. Transfection was then initiated after this treatment period.
Quantitation of Neurite Outgrowth. Cell counts were taken from six randomly chosen microscopic fields (10×). […] The number of cells with such outgrowths was then expressed as a percentage of the total number of cells. Values obtained were from duplicates of three independent experiments.

[5] = system: caspase-3/7 in SW480 cells; experiment: Caspase-3/7 activity assay, SW480; format: cell-based; settings: SW480, 25 μM, 24 hours, compared to CCD18Co cells
Description: (§3) SW480, HCT116, and CCD18Co cells were plated at 10^5 cells per well (96-well plates) for 24 hours prior to treatment. […] 24 hours post treatment, cells were lysed and caspase activity was measured using a caspase-3/7 activity kit (Apo-One Homogeneous caspase-3/7 assay, #G77905, Promega). Relative fluorescence units (RFU) were obtained by subtracting the unit values of the blank (control, without cells) from the experimental measured values.
(§4) Caspases are cysteine proteases that are generally activated in a given population of cells triggered by apoptotic stimuli.

[6] = target: β-catenin/CBP interaction (Homo sapiens, UniProt Q92793); settings: Emami et al., Cancer Cell, in press; cited from earlier work
[7] = system: surviving protein; experiment: Western blot analysis of survivin protein; format: cell-based; settings: 10 μM or 25 μM
[8] = system: caspase-3/7 in HCT116 cells; experiment: Caspase-3/7 activity assay, HCT116; format: cell-based; settings: HCT116, 25 μM, 24 hours, compared to CCD18Co cells
Description: as §3, §4

[9] = system: cultured tumor cells; experiment: FACS analysis of cells in G0, cultured tumor cells; format: cell-based; settings: 5 μM
[10] = system: TCF/β-catenin reporter gene transcription; experiment: TOPFLASH luciferase assay in differentiated PC-12 PS-1/L286V cells; format: cell-based, Rat; settings: PS-1/L286V mutant PC-12 cells, 10 μM plus NGF
Description: as §2
Transfection. PC-12 cells were cultured and differentiated on 60-mm dishes. At the end of the 10-day differentiation period, cells were transfected with 2 μg reporter constructs, TOPFLASH and FOPFLASH, per 60-mm dish. Transfections were performed using Superfect (Qiagen) according to manufacturer's instructions.
Luciferase Assays. Cells were lysed, 6 hours after transfections, in 100 μl of Cell Culture Lysis Reagent (Promega, Madison, Wis.), and scraped into microcentrifuge tubes. Tubes were then centrifuged briefly (about 10 seconds) at 12000 rpm to pellet cell debris. Luciferase activity was measured on 20 μl of cell lysate and 100 μl substrate from the Luciferase Assay System (Promega). Luciferase activity was measure using Packard LumiCount. (Hewlett Packard). Quantitation of luciferase was performed in triplicates, and repeated in at least three independent experiments.

[11] = target: β-catenin/p300 interaction (Homo sapiens, UniProt Q09472); settings: Emami et al., Cancer Cell, in press; cited from earlier work
[12] = system: surviving promoter; experiment: ChIP assay on SW480 cells (survivin promoter occupancy); format: cell-based; settings: SW480, 25 μM, 18 hours

Sequence of β-catenin/CBP interaction (Q92793 whole entry): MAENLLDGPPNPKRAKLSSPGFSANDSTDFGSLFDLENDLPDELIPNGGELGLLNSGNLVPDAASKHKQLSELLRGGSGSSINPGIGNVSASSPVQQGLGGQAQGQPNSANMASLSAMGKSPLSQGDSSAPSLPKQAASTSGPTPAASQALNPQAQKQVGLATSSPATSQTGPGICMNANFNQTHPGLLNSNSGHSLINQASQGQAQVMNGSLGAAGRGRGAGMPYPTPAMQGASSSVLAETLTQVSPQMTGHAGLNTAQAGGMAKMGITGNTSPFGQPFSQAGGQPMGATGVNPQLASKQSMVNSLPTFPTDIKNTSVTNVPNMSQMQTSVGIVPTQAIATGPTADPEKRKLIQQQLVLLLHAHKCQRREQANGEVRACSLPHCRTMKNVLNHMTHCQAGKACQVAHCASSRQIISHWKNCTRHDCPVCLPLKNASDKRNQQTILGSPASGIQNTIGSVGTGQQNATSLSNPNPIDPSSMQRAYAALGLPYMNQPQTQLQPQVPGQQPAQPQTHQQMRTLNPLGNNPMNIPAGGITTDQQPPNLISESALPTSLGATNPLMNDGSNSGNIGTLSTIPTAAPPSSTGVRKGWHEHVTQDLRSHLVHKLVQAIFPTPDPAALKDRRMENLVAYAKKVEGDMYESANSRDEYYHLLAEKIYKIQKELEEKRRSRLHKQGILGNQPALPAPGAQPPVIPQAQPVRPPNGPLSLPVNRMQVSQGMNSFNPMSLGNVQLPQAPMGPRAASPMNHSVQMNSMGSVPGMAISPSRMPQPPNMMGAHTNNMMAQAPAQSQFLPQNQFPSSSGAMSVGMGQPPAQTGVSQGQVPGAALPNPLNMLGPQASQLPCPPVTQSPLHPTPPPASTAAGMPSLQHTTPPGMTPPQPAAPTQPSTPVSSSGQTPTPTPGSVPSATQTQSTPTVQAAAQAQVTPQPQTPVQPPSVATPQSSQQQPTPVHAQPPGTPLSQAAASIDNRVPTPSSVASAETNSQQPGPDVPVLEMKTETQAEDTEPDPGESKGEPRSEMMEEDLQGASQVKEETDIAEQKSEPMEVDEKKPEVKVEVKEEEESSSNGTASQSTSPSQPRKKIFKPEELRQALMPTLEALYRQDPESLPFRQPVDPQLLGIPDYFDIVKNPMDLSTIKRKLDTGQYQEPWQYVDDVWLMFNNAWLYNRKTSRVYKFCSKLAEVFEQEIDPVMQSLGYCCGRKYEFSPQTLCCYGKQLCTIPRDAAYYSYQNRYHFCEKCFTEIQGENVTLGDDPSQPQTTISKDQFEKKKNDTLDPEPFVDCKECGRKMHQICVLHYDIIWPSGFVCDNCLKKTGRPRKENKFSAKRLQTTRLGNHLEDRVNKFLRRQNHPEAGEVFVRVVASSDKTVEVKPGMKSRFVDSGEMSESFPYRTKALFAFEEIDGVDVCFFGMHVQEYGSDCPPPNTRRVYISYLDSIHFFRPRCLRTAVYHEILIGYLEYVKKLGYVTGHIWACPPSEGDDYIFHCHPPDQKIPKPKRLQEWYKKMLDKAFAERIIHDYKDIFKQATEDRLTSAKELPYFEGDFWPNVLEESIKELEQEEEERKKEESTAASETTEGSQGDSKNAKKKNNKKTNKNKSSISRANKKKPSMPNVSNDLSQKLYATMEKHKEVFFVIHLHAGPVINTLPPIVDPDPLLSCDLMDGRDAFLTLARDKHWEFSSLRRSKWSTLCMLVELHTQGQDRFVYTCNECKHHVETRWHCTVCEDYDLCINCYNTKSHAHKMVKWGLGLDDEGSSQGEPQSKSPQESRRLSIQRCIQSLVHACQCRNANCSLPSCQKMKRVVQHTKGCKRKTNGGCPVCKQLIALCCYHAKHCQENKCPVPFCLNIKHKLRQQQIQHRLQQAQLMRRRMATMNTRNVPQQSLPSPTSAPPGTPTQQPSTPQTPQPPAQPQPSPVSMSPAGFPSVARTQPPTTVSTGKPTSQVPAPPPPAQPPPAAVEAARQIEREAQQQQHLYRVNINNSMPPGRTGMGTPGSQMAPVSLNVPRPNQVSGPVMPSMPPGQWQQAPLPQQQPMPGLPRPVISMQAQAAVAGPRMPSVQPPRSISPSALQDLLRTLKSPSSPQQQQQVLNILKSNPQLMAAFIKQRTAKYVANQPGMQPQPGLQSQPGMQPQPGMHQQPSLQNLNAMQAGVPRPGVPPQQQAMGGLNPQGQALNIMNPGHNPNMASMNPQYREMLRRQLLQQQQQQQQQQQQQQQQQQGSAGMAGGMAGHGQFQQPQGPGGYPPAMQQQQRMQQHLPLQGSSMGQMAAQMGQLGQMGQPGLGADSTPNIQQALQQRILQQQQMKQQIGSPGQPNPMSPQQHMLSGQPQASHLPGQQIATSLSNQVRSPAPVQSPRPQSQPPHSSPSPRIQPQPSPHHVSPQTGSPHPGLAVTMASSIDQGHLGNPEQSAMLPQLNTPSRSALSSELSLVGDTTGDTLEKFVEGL
Sequence of β-catenin/p300 interaction (Q09472 whole entry): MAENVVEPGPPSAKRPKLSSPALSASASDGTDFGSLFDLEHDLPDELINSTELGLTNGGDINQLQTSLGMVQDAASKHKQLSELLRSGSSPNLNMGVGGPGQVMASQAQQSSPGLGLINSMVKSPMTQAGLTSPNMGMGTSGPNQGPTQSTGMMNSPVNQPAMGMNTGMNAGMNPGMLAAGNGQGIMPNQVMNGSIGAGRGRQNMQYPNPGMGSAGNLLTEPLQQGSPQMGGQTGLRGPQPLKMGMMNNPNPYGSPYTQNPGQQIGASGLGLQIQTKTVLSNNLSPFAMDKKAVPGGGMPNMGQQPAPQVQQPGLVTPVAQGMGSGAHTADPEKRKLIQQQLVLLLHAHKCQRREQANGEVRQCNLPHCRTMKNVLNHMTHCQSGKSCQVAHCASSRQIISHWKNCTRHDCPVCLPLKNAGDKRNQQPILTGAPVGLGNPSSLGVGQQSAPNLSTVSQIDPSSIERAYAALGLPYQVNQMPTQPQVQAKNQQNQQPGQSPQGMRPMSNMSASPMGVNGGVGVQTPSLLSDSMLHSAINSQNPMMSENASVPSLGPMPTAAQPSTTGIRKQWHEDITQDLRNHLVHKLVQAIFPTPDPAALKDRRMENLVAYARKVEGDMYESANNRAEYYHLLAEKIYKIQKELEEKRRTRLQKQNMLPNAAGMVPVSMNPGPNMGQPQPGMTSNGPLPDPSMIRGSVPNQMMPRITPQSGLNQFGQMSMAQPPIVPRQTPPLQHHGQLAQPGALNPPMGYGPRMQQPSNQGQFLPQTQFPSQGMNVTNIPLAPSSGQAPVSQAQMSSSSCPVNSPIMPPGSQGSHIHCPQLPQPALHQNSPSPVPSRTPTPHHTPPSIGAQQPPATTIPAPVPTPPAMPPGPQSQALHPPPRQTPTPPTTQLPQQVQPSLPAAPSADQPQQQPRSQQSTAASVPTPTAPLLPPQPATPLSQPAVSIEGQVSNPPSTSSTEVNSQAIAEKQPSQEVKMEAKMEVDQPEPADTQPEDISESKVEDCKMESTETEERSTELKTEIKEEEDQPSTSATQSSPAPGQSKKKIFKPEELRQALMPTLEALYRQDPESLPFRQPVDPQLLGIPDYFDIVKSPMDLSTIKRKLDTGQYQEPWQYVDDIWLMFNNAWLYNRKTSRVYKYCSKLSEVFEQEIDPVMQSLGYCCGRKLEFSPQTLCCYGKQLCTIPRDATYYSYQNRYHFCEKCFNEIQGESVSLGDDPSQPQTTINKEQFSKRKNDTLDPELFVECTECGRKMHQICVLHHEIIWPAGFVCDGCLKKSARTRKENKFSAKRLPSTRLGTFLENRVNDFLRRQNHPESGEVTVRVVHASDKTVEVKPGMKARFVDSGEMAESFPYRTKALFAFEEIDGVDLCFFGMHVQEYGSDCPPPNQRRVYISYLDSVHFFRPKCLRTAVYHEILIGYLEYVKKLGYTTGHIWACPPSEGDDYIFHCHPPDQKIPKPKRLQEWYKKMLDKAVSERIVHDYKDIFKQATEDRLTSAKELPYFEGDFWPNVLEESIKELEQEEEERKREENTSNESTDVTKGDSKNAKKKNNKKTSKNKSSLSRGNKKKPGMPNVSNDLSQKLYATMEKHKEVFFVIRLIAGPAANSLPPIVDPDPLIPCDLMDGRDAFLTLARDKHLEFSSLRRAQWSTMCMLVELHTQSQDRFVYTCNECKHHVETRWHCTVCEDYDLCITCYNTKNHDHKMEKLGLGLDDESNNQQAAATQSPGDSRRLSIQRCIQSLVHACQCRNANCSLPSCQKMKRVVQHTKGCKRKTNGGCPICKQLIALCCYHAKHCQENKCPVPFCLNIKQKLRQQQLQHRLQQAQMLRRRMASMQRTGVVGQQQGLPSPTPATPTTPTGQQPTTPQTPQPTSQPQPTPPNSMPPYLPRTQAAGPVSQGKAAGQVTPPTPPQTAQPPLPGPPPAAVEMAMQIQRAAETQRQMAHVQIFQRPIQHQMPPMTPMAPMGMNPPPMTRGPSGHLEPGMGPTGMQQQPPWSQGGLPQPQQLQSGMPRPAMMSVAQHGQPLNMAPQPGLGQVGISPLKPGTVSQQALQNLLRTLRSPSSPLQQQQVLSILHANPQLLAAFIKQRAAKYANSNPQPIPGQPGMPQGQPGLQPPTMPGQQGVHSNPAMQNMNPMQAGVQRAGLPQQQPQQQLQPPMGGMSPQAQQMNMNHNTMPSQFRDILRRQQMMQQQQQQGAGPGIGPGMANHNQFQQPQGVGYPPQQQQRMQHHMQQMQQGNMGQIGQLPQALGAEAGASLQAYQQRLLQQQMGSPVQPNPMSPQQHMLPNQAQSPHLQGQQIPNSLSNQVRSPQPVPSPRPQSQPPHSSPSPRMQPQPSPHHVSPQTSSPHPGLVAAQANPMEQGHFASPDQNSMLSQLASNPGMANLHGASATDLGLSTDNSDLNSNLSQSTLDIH

**Q.** Which “cell cycle distribution (FACS, PI)” value [1] does the source give for O=C1[C@H](Cc2ccc(O)cc2)N2C(=O)CCN(C(=O)NCc3ccccc3)[C@H]2CN1Cc1cccc2ccccc12 [Compound D] here?
**A.** increased accumulation at G1/S-phase of the cell cycle

**Q.** What about the “Ratio (Treated/DMSO Control) Ubiquitin” value [2] of the same compound?
**A.** 0.98

**Q.** And the “Ratio (Treated/DMSO Control) MIC-1” value [3]?
**A.** 7.0

**Q.** And the “percentage of cells bearing neurites greater than twice the length of the cell body” value [4]?
**A.** substantially increased the percentage of cells bearing neurites

**Q.** And the “neurite outgrowth and differentiation” value ([4]; 10 days)?
**A.** essentially normal neurite outgrowth and differentiation

**Q.** And the caspase-3/7 activity [5]?
**A.** specifically and significantly activated the caspase-3/7 pathway

**Q.** And the “blocking of β-catenin/CBP interaction” value [6]?
**A.** selectively blocks the β-catenin/CBP interaction

**Q.** And the “amount of survivin protein (Western blot)” value [7]?
**A.** reduced the amount of the surviving protein

**Q.** What about the caspase-3/7 activity [8] of the same compound?
**A.** specifically and significantly activated the caspase-3/7 pathway

**Q.** And the “number of cells in G0 (FACS)” value [9]?
**A.** increase the number of cells in G0

**Q.** What about the “TCF/β-catenin reporter gene transcription” value [10] of the same compound?
**A.** decreased TCF/β-catenin reporter gene transcription

**Q.** What about the “blocking of β-catenin/p300 interaction” value [11] of the same compound?
**A.** not the β-catenin/p300 interaction

**Q.** And the “association of CBP, β-catenin, Tcf4 and acetylated histone with the survivin promoter (ChIP)” value [12]?
**A.** decreases the association of all these proteins with the surviving promoter
